Measured values as given in article PMC10497752, “Heparins are potent inhibitors of ectonucleotide pyrophosphatase/phospho-diesterase-1 (NPP1) – a promising target for the immunotherapy of cancer” (Frontiers in Immunology, 2023).

Tests used:
human NPP4 = biological target: T1, human NPP4 (Homo sapiens, UniProt Q9Y6X5); assay: NPP4 luminescence-based assay, Ap4A as substrate; format: biochemical; settings: 20 µg/mL (12 µM)
T1 construct: as a substrate and human soluble NPP4; made in house
T1 sequence (Q9Y6X5 16-407 limits assumed): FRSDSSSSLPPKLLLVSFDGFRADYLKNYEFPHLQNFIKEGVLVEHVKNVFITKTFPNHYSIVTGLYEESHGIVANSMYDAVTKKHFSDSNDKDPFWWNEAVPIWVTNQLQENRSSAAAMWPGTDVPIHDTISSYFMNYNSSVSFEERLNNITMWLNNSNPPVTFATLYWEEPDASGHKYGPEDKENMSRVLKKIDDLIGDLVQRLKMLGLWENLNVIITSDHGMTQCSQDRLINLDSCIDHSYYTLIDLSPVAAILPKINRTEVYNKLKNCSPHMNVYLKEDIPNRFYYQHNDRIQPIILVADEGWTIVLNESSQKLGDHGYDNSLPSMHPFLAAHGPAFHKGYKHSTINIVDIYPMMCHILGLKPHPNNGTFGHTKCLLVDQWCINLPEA
Experimental: Selectivity studies on NPP4 were performed using a published luminescence-based assay versus 20 μM of diadenosine tetraphosphate (Ap4A) as a substrate and human soluble NPP4 ([24]). The assay buffer consisted of 10 mM HEPES, 1 mM MgCl2, and 2 mM CaCl2 (pH 8.00). The enzyme reaction was started by adding 0.14 μg of purified human NPP4 to the reaction mixture, which was incubated at 37°C for 90 min. The released product ATP was quantified using the luciferin-luciferase reaction. The firefly luciferase reacts with D-luciferin in the presence of the formed ATP and Mg^2+. The resulting luminescence is a measure of the enzymatic activity, and the luminescence was read at 560 nm using a microplate reader (BMG PheraStar). Three independent experiments were performed, each in duplicate measurements; positive and negative controls were included.

human NTPDase1 (CD39) = biological target: T2, human NTPDase1 (CD39) (Homo sapiens, UniProt P49961); assay: NTPDase CE-based assay, NTPDase1; format: biochemical; settings: 20 µg/mL (12 µM); read-out: NTPDase1 inhibition, selectivity study
T2 construct: made in house; host or cells: COS-7 cells
T2 sequence (P49961 1-510): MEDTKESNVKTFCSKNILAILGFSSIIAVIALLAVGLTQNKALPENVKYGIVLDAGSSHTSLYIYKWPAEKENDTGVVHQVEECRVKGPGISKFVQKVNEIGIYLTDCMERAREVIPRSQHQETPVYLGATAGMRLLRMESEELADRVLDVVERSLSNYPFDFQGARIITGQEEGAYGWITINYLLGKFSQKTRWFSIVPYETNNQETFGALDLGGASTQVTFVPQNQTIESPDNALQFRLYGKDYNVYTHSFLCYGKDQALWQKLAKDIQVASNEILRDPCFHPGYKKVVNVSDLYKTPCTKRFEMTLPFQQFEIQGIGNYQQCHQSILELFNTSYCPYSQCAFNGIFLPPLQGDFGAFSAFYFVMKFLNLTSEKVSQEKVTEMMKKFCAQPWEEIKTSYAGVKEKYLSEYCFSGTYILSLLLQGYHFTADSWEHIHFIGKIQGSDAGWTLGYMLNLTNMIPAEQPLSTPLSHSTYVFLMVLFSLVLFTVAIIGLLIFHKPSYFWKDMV
Experimental: (§1) For monitoring the activity of human NTPDases (subtypes 1, 2, 3 and 8) in the presence of test compounds, a CE-based assay system was used, according to a published procedure ([11], [25]). The following concentrations of test compounds were investigated in initial screening studies: 63 IU/mL of compounds 1 and 2, 30 µM of compound 6. For selectivity studies, the following concentration were employed: 50 IU/mL of 1, 12 µM of 6, and 48 µM of 7. The amount of enzyme was selected according to previously performed enzymatic titration, and adjusted to ensure a 10–20% conversion rate. Enzymes were obtained by transfection of COS-7 cells using plasmids encoding human NTPDase1 (GenBank accession number U87967) ([26]), NTPDase2 (NM_203468) ([27]), a kind gift of Dr. A.F. Knowles (San Diego, CA), NTPDase3 (AF034840) ([28]), a kind gift of Dr. T.L. Kirley (Cincinnati, OH) and human NTPDase8 (AY430414) ([29]) and purified as previously described ([30], [31]). The reaction buffer consisted of 10 mM HEPES, 2 mM CaCl2, and 1 mM MgCl2, pH 7.4. In the CE assay, the selected substrate concentration (ATP) was 100 µM for all studied human NTPDases (-1, -2, -3 and -8). […] The released products were separated by CE and quantified by their UV-absorption at 260 nm with ADP and AMP as external standards, as previously described ([11]); positive and negative controls were included.

human NTPDase8 = biological target: T3, human NTPDase8 (Homo sapiens, UniProt Q5MY95); assay: NTPDase CE-based assay, NTPDase8; format: biochemical; settings: 20 µg/mL (12 µM)
T3 construct: made in house; host or cells: COS-7 cells
T3 sequence (Q5MY95 1-495): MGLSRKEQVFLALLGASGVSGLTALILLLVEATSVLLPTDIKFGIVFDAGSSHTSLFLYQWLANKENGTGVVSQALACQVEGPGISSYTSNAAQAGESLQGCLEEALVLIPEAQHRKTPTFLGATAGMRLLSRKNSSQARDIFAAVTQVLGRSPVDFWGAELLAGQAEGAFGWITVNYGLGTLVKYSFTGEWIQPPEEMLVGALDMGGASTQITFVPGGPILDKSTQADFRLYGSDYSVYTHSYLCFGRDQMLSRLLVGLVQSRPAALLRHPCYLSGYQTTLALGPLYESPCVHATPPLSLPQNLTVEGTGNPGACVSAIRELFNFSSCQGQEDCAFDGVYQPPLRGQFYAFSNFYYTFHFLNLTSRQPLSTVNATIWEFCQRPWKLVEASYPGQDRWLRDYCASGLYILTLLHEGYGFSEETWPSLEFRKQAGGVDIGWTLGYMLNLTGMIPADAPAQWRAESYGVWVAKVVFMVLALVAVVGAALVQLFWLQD
Experimental: as §1

[1] = cited from earlier work

Question: With CO[C@H]1O[C@H](COS(=O)(=O)O)[C@@H](O[C@@H]2O[C@@H](C(=O)O)[C@@H](O[C@H]3O[C@H](COS(=O)(=O)O)[C@@H](O[C@@H]4O[C@H](C(=O)O)[C@@H](O[C@H]5O[C@H](COS(=O)(=O)O)[C@@H](O)[C@H](O)[C@H]5NS(=O)(=O)O)[C@H](O)[C@H]4O)[C@H](OS(=O)(=O)O)[C@H]3NS(=O)(=O)O)[C@H](O)[C@H]2OS(=O)(=O)O)[C@H](O)[C@H]1NS(=O)(=O)O [Compound 6, Fondaparinux] as the compound, how does the “NPP4 inhibition, selectivity study” value (human NPP4) read?
Answer: The value was “no effect”.

Question: What about the inhibition at 12 µM (human NTPDase1 (CD39)) of the same compound?
Answer: Its inhibition at 12 µM is ~35%.

Question: And the “NTPDase8 inhibition, selectivity study” value (human NTPDase8)?
Answer: Its value is “no effect”.

Question: And the half-life [1]?
Answer: The half-life was 17 h.
